Assay results from patent publication US4760081A, “1,6-naphthyridine derivatives useful for treating diseases of the blood vessels” (Goedecke Aktiengesellschaft, priority 1984, dated 1988).
Where a name gives a salt, the structure may show the parent alone. Read-outs that look alike come from different tables or passages of the source.

How the values were obtained:
[1] = test system: arteria basilaris; assay: Isolated smooth muscle: inhibition of K+ depolarization contraction of blood vessel rings in an organ bath, A. basilaris; assay type: cell-based; settings: rabbit, average diameter 0.5-1.0 mm, read-out: IC50, semi-maximum inhibition of the K+ depolarization contraction of blood vessel rings, A. bas.
Description: (§1) Isolated smooth muscle from rabbits (blood vessel rings, A. basilaris, A. coronaria, A. saphena) are fixed in an organ bath in such a manner that isometric contractions can be measured. The contraction is initiated by a potassium depolarization in tyrode solution.

[2] = test system: arteria coronaria; assay: Isolated smooth muscle: inhibition of K+ depolarization contraction of blood vessel rings in an organ bath, A. coronaria; assay type: cell-based; settings: rabbit, average diameter 0.5-1.0 mm, read-out: IC50, semi-maximum inhibition of the K+ depolarization contraction of blood vessel rings, A. cor.
Description: as §1

[3] = test system: isolated papillary muscle of the guinea pig; assay: Isolated papillary muscle: isometric contraction under field stimulation; assay type: cell-based; settings: for IC50: read-out: IC50 /100 (IC = inhibition concentration, IC100 corresponds to maximum action) (converted)
Description: However, it cannot be excluded that the dimethyl sulfoxide used as a solvent has contributed to the observed positive inotropic action.

[4] = test system: arteria saphena; assay: Isolated smooth muscle: inhibition of K+ depolarization contraction of blood vessel rings in an organ bath, A. saphena; assay type: cell-based; settings: rabbit, average diameter 0.5-1.0 mm, read-out: IC50, semi-maximum inhibition of the K+ depolarization contraction of blood vessel rings, A. saph.
Description: as §1

[5] = test system: papillary muscle of the rabbit; settings: Hof and Scholtysik, cited from earlier work
[6] = Cavia porcellus, papillary muscle of guinea pig, 250/min, 10 msec, 10-20 V field stimulation

| IC50 ([1]; Oryctolagus cuniculus) [nM] | IC50 ([2]; Oryctolagus cuniculus) [nM] | IC50 [3, 6] [nM] | IC50 ([4]; Oryctolagus cuniculus) [nM] | Compound | further results |
| --- | --- | --- | --- | --- | --- |
| 5 | 30 | 300000 | 7 | COC(=O)C1=C(C)Nc2ccnc(OC(C)C)c2C1c1ccccc1F (racemic) [Example 1, Methyl (±)-4-(2-fluorophenyl)-1,4-dihydro-5-isopropoxy-2-methyl-1,6-naphthyridine-3-carboxylate] | – |
| 0.66 | 0.75 | – | 3.4 | COC(=O)C1=C(C)Nc2ccnc(OC(C)C)c2C1c1ccccc1[N+](=O)[O-] (racemic) [Example 1b, methyl (±)-1,4-dihydro-5-isopropoxy-2-methyl-4-(2-nitrophenyl)-1,6-naphthyridine-3-carboxylate] | – |
| 15 | 65 | – | 1000 | COC(=O)C1=C(C)Nc2ccnc(OC(C)C)c2C1c1ccccc1 (racemic) [Example 1c, methyl (±)-1,4-dihydro-5-isopropoxy-2-methyl-4-phenyl-1,6-naphthyridine-3-carboxylate] | activation at 0.3 µM ([3]; Cavia porcellus, 3×10^-7 mol/liter, read-out: maximum increase of the contractility): 36%; activation at 0.004 µM ([3]; Cavia porcellus, 4×10^-9 mol/liter, read-out: increase of the contractility): 18% |
| 5.9 | 3.2 | – | – | COC(=O)C1=C(C)Nc2ccnc(OC(C)C)c2C1c1c(F)cccc1Cl (racemic) [Example 1g, methyl (±)-4-(2-chloro-6-fluorophenyl)-1,4-dihydro-5-isopropoxy-2-methyl-1,6-naphthyridine-3-carboxylate] | – |
| 3000 | 15 | – | 1000 | CCCOc1nccc2c1C(c1ccccc1C(F)(F)F)C(C(=O)OC)=C(C)N2 (racemic) [Example 1h, methyl (±)-1,4-dihydro-2-methyl-5-propoxy-4-(2-trifluoromethylphenyl)-1,6-naphthyridine-3-carboxylate] | – |
| 7.4 | 31 | 120000 | 390 | CCOC(=O)C1=C(C)Nc2ccnc(OC(C)C)c2C1c1ccccc1C(F)(F)F (racemic) [Example 1l, ethyl (±)-1,4-dihydro-5-isopropoxy-2-methyl-4-(2-trifluoromethylphenyl)-1,6-naphthyridine-3-carboxylate] | – |
| 250 | 1000 | – | 90 | COC(=O)C1=C(C)Nc2ccnc(OC)c2C1c1ccccc1 (racemic) [Example 2, Methyl (±)-1,4-dihydro-5-methoxy-2-methyl-4-phenyl-1,6-naphthyridine-3-carboxylate] | – |
| 6 | 10 | – | 600 | CCOC(=O)C1=C(C)Nc2ccnc(OC)c2C1c1ccccc1Cl (racemic) [Example 2a, ethyl (±)-4-(2-chlorophenyl)-1,4-dihydro-5-methoxy-2-methyl-1,6-naphthyridine-3-carboxylate] | – |
| 1.8 | 12 | – | 600 | CCOC(=O)C1=C(C)Nc2ccnc(OC)c2C1c1cccc([N+](=O)[O-])c1 (racemic) [Example 2b, ethyl (±)-1,4-dihydro-5-methoxy-2-methyl-4-(3-nitrophenyl)-1,6-naphthyridine-3-carboxylate] | – |
| 120 | 170 | 10000 | 2900 | COc1ccc([C@@H]2Sc3ccccc3N(CCN(C)C)C(=O)[C@@H]2OC(C)=O)cc1 [diltiazem, reference compound] | – |
| – | – | – | – | methyl (±)-4-(2-bromoethyl)-1,4-dihydro-5-isopropoxy-2-methyl-1,6-naphthyridine-3-carboxylate [Example 1a] | IC50 [1]: 2.4 nM; IC50 [2]: 2.7 nM; Δ% = maximum decrease of the contractility ([3]; at IC100, papillary muscle of guinea pig, 250/min, 10 msec, 10-20 V field stimulation): -48%; IC50 ([3]; papillary muscle of guinea pig, 250/min, 10 msec, 10-20 V field stimulation): 300000 nM; IC50 [4]: 8 nM |

| Compound | IC50 ([1]; Oryctolagus cuniculus) [nM] | IC50 ([2]; Oryctolagus cuniculus) [nM] | IC50 [3, 6] [nM] | IC50 ([4]; Oryctolagus cuniculus) [nM] | further results |
| --- | --- | --- | --- | --- | --- |
| CCOC(=O)C1=C(C)Nc2ccnc(OC(C)CC)c2C1c1ccccc1C(F)(F)F (racemic) [Example 1p, ethyl (±)-5-sec-butoxy-1,4-dihydro-2-methyl-4-(2-trifluoromethylphenyl)-1,6-napthyridine-3-carboxylate hydrochloride] | 16 | 53 | 10000 | – | – |
| CCOC(=O)C1=C(C)Nc2ccnc(OCC(C)C)c2C1c1ccccc1C(F)(F)F (racemic) [Example 1q, ethyl (±)-1,4-dihydro-5-isobutoxy-2-methyl-4-(2-trifluoromethylphenyl)-1,6-naphthyridine-3-carboxylate] | 35 | 190 | 10000 | – | – |
| COC(=O)C1=C(C)NC(C)=C(C(=O)OC)C1c1ccccc1[N+](=O)[O-] [nifedipine, reference compound] | 2.7 | 5 | – | 59 | IC50 ([5]; read-out: IC50 /100 (IC = inhibition concentration, IC100 corresponds to maximum action)): 1000 nM; Δ% = maximum decrease of the contractility [5]: -80% |
